Assay results from patent publication US11203601B2, “Tricyclic compounds as glycogen synthase kinase 3 (GSK3) inhibitors and uses thereof” (The Broad Institute, Inc., priority 2017, dated 2021).

Experiments:
Assay in all cases: Carna kinome panel
Assay type in all cases: biochemical
[1] = biological target: ABL(T315I) (Homo sapiens (Human), UniProt P00519, T315I); conditions: read-out: % Inhibition at 10 μM of the test compound
[2] = biological target: JAK1 (Homo sapiens (Human), UniProt P23458); conditions: read-out: % Inhibition at 10 μM of the test compound
[3] = biological target: BLK (Homo sapiens (Human), UniProt P51451); conditions: read-out: % Inhibition at 10 μM of the test compound
Chain of BLK (P51451 whole entry): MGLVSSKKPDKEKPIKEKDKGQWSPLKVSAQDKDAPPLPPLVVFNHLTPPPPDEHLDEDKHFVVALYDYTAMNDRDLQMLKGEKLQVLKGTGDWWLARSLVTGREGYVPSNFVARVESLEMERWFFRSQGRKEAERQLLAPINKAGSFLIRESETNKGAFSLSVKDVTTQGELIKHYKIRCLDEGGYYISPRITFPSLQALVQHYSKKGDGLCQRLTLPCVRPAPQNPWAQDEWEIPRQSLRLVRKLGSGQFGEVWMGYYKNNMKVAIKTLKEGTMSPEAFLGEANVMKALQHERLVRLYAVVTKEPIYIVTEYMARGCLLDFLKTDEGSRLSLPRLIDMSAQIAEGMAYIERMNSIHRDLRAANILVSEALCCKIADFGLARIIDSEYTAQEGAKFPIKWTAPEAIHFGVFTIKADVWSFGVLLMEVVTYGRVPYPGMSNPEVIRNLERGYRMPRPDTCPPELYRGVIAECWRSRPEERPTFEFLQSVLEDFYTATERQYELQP

[4] = biological target: NEK2 (Homo sapiens (Human), UniProt P51955); conditions: read-out: % Inhibition at 10 μM of the test compound
[5] = biological target: RSK3 (Homo sapiens (Human), UniProt Q15349); conditions: read-out: % Inhibition at 10 μM of the test compound
[6] = biological target: DAPK1 (Homo sapiens (Human), UniProt P53355); conditions: read-out: % Inhibition at 10 μM of the test compound
[7] = biological target: WNK1 (Homo sapiens (Human), UniProt Q9H4A3); conditions: read-out: % Inhibition at 10 μM of the test compound
[8] = biological target: IKKα (Homo sapiens (Human), UniProt O15111); conditions: read-out: % Inhibition at 10 μM of the test compound
[9] = biological target: KIT(V560G) (Homo sapiens (Human), UniProt P10721, V560G); conditions: read-out: % Inhibition at 10 μM of the test compound
[10] = biological target: AKT2 (Homo sapiens (Human), UniProt P31751); conditions: read-out: % Inhibition at 10 μM of the test compound
[11] = biological target: FGFR4(V550E) (Homo sapiens (Human), UniProt P22455, V550E); conditions: read-out: % Inhibition at 10 μM of the test compound
[12] = biological target: NuaK2 (Homo sapiens (Human), UniProt Q9H093); conditions: read-out: % Inhibition at 10 μM of the test compound
[13] = biological target: PIK3CA/PIK3R1 (Homo sapiens (Human), UniProt P42336)
Chain of PIK3CA/PIK3R1 (P42336 whole entry, looked up): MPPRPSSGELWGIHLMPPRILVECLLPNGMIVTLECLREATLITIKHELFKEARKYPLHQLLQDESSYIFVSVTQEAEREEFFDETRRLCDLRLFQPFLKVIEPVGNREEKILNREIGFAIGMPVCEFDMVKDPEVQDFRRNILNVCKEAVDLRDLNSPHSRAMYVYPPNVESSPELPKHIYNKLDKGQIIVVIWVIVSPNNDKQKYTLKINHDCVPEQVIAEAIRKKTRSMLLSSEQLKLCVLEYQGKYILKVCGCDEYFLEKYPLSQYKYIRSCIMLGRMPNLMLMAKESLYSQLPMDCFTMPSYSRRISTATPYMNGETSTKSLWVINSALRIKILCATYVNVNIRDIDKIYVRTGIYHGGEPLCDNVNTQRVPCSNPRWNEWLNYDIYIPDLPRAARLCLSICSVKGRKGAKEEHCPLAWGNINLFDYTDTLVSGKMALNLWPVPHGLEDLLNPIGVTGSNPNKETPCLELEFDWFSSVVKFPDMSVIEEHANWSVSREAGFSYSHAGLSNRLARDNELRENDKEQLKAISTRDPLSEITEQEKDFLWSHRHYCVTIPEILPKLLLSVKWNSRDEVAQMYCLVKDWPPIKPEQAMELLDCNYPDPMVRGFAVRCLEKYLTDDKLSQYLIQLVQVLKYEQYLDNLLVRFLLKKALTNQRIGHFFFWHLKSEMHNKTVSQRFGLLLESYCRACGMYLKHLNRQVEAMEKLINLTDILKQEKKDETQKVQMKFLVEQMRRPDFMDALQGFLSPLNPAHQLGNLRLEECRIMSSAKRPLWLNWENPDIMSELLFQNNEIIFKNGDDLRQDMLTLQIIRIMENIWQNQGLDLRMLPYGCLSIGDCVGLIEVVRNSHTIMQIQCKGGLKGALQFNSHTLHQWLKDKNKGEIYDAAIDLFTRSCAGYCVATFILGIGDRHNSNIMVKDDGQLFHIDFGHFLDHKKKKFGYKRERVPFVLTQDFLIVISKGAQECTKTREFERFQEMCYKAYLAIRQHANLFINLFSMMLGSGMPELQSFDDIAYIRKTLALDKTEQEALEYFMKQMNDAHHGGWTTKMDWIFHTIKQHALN
Chain of PIK3CA/PIK3R1 (P27986 whole entry partner, looked up): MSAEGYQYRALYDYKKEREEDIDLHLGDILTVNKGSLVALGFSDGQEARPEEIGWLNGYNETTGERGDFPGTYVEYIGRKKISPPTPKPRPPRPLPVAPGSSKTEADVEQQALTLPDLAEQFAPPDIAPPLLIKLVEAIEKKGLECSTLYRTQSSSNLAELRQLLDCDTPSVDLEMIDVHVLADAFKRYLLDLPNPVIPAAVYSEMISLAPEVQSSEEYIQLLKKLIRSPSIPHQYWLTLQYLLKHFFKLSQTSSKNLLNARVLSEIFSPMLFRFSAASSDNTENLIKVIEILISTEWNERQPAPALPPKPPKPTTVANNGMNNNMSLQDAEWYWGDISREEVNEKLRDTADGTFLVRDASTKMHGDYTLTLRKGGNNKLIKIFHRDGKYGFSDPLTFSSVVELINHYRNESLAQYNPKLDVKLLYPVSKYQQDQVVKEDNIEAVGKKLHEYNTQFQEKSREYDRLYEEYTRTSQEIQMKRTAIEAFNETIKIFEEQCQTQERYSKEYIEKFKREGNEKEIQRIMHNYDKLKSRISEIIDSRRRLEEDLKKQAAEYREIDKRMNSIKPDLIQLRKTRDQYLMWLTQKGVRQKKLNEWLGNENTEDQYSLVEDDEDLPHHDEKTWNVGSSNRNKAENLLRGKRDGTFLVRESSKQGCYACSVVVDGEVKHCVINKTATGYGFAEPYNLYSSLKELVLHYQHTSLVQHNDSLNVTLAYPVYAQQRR
Excerpt: (§1) 2) Off-Chip Mobility Shift Assay (MSA).

[14] = biological target: CDK9/CycT1 (Homo sapiens (Human), UniProt P50750)
Chain of CDK9/CycT1 (P50750 whole entry, looked up): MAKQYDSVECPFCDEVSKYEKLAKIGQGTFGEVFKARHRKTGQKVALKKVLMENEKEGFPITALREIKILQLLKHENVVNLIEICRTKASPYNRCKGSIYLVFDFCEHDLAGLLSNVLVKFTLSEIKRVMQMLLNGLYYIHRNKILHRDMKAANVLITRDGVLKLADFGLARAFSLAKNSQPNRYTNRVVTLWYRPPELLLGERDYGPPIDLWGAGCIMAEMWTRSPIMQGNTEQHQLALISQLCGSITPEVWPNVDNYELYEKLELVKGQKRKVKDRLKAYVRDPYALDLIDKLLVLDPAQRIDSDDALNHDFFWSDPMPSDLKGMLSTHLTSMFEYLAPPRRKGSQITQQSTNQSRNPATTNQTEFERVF
Chain of CDK9/CycT1 (O60563 whole entry partner, looked up): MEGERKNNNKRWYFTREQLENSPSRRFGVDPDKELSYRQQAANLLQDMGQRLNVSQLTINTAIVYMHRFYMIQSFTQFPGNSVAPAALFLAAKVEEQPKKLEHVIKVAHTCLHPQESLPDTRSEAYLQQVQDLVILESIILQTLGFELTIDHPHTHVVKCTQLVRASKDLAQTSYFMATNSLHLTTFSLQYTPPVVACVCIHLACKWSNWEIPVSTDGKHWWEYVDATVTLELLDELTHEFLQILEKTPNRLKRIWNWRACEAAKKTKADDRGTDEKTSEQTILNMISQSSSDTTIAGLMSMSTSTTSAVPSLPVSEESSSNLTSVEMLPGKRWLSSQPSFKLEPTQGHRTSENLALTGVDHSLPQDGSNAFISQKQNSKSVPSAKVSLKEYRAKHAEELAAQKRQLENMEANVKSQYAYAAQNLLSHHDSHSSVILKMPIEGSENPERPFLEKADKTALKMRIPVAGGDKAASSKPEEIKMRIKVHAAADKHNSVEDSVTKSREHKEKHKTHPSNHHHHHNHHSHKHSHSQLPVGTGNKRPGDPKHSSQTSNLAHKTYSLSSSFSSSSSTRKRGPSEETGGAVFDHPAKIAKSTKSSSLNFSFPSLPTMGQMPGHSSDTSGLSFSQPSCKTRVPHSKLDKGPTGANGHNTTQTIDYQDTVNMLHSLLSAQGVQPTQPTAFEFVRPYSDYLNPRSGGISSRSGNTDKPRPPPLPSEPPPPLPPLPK
Excerpt: as §1

[15] = biological target: CDK2/CycA2 (Homo sapiens (Human), UniProt P24941)
Excerpt: as §1

[16] = biological target: CDK2/CycE1 (Homo sapiens (Human), UniProt P24941)
Excerpt: as §1

[17] = biological target: CDK3/CycE1 (Homo sapiens (Human), UniProt Q00526)
Excerpt: as §1

[18] = biological target: JNK2 (Homo sapiens (Human), UniProt P45984); conditions: read-out: % Inhibition at 10 μM of the test compound
[19] = biological target: KIT(D816V) (Homo sapiens (Human), UniProt P10721, D816V); conditions: read-out: % Inhibition at 10 μM of the test compound
[20] = biological target: EGFR(T790M) (Homo sapiens (Human), UniProt P00533, T790M); conditions: read-out: % Inhibition at 10 μM of the test compound
[21] = biological target: PDHK4 (Homo sapiens (Human), UniProt Q16654); conditions: read-out: % Inhibition at 10 μM of the test compound
Chain of PDHK4 (Q16654 whole entry): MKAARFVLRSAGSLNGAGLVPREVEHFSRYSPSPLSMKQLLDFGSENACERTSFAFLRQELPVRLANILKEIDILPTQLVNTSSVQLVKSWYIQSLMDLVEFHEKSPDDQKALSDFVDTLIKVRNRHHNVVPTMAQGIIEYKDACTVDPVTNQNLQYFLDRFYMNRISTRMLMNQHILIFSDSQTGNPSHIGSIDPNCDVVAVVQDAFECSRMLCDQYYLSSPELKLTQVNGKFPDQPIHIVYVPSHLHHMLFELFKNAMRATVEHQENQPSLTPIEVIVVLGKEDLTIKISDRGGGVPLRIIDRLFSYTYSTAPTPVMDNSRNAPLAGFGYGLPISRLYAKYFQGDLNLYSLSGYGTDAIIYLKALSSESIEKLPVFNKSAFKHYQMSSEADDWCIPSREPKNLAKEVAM

[22] = biological target: CSK (Homo sapiens (Human), UniProt P41240); conditions: read-out: % Inhibition at 10 μM of the test compound
[23] = biological target: FGFR4 (Homo sapiens (Human), UniProt P22455); conditions: read-out: % Inhibition at 10 μM of the test compound
[24] = biological target: RON (Homo sapiens (Human), UniProt Q04912); conditions: read-out: % Inhibition at 10 μM of the test compound
[25] = biological target: EPHA5 (Homo sapiens (Human), UniProt P54756); conditions: read-out: % Inhibition at 10 μM of the test compound
[26] = biological target: PAK2 (Homo sapiens (Human), UniProt Q13177); conditions: read-out: % Inhibition at 10 μM of the test compound
[27] = biological target: BRK (Homo sapiens (Human), UniProt Q13882); conditions: read-out: % Inhibition at 10 μM of the test compound
[28] = biological target: TRKA (Homo sapiens (Human), UniProt P04629); conditions: read-out: % Inhibition at 10 μM of the test compound
[29] = biological target: SPHK1 (Homo sapiens (Human), UniProt Q9NYA1); conditions: read-out: % Inhibition at 10 μM of the test compound
Chain of SPHK1 (Q9NYA1 whole entry): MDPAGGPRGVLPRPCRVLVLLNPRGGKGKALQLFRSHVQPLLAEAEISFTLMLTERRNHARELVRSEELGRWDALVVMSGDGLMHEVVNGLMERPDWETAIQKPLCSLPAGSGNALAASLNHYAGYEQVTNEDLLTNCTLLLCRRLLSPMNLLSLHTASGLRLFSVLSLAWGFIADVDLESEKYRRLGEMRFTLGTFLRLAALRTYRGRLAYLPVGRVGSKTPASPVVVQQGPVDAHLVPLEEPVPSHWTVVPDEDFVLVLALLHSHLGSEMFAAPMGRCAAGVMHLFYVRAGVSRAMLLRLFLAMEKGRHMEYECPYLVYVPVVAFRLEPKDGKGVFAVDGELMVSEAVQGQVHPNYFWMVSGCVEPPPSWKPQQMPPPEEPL

[30] = biological target: PKACα (Homo sapiens (Human), UniProt P17612); conditions: read-out: % Inhibition at 10 μM of the test compound
[31] = biological target: FLT4 (Homo sapiens (Human), UniProt P35916); conditions: read-out: % Inhibition at 10 μM of the test compound
[32] = biological target: RSK4 (Homo sapiens (Human), UniProt Q9UK32); conditions: read-out: % Inhibition at 10 μM of the test compound
Chain of RSK4 (Q9UK32 whole entry): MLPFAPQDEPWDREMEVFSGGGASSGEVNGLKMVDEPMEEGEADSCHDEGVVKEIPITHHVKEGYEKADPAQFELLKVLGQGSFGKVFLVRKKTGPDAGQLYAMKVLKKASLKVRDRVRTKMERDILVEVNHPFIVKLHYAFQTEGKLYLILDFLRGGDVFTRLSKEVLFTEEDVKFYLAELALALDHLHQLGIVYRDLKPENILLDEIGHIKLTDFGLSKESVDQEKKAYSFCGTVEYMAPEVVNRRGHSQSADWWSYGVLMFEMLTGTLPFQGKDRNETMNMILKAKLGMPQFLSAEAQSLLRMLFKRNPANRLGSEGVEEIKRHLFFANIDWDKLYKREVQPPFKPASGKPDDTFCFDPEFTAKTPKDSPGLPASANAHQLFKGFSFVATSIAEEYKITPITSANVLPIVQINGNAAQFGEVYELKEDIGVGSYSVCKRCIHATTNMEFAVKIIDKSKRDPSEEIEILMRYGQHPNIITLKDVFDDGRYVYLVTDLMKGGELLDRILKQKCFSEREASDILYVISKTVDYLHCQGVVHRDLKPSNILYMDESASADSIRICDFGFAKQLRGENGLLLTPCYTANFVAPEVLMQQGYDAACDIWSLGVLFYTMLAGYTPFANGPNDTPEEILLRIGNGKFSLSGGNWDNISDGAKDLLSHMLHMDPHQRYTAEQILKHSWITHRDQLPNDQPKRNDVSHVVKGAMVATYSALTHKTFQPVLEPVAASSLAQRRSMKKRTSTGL

[33] = biological target: CK1α (Homo sapiens (Human), UniProt P48729); conditions: read-out: % Inhibition at 10 μM of the test compound
[34] = biological target: MAP2K7_Cascade (Homo sapiens (Human), UniProt O14733); conditions: read-out: % Inhibition at 10 μM of the test compound
[35] = biological target: EPHB2 (Homo sapiens (Human), UniProt P29323); conditions: read-out: % Inhibition at 10 μM of the test compound
[36] = biological target: CHK1 (Homo sapiens (Human), UniProt O14757); conditions: read-out: % Inhibition at 10 μM of the test compound
[37] = biological target: FYN(isoform a) (Homo sapiens (Human), UniProt P06241); conditions: read-out: % Inhibition at 10 μM of the test compound
[38] = biological target: NDR2 (Homo sapiens (Human), UniProt Q9Y2H1); conditions: read-out: % Inhibition at 10 μM of the test compound
[39] = biological target: CDC2/CycB1 (Homo sapiens (Human), UniProt P06493); conditions: read-out: % Inhibition at 10 μM of the test compound
[40] = read-out: % Inhibition at 10 μM of the test compound

Structure (SMILES): CCC1(c2ccccc2)C2=C(CC(C)(C)CC2=O)Nc2ncsc21 (centres unmarked) [Compound 1, 9-Ethyl-6,6-dimethyl-9-phenyl-5,6,7,9-tetrahydrothiazolo[4,5-b]quinolin-8(4H)-one]
- inhibition at 10 µM [1]: 0.4%
- inhibition at 10 µM [2]: -6.4%
- inhibition at 10 µM [3]: 5%
- inhibition at 10 µM [4]: 0.9%
- inhibition at 10 µM [5]: -4.9%
- inhibition at 10 µM [6]: -8.7%
- inhibition at 10 µM [7]: -2.1%
- inhibition at 10 µM [8]: -1.6%
- inhibition at 10 µM [9]: -5.8%
- inhibition at 10 µM [10]: 1%
- inhibition at 10 µM [11]: 4%
- inhibition at 10 µM [12]: 1.5%
- IC50 [13]: > 10 µM
- inhibition at 10 µM [13, 40]: 65.1%
- IC50 [14]: 6.48 µM
- inhibition at 10 µM [14, 40]: 60.5%
- IC50 [15]: 6.91 µM
- inhibition at 10 µM [15, 40]: 58.8%
- IC50 [16]: 8.52 µM
- inhibition at 10 µM [16, 40]: 53.4%
- IC50 [17]: 6.22 µM
- inhibition at 10 µM [17, 40]: 55.5%
- inhibition at 10 µM [18]: -1.5%
- inhibition at 10 µM [19]: -4.8%
- inhibition at 10 µM [20]: -13.8%
- inhibition at 10 µM [21]: 8.3%
- inhibition at 10 µM [22]: 6.1%
- inhibition at 10 µM [23]: 2.8%
- inhibition at 10 µM [24]: -3.9%
- inhibition at 10 µM [25]: 9.3%
- inhibition at 10 µM [26]: -15.7%
- inhibition at 10 µM [27]: 0.3%
- inhibition at 10 µM [28]: 5.4%
- inhibition at 10 µM [29]: -6.5%
- inhibition at 10 µM [30]: -0.6%
- inhibition at 10 µM [31]: -0.2%
- inhibition at 10 µM [32]: -4.6%
- inhibition at 10 µM [33]: 4.3%
- inhibition at 10 µM [34]: 2.8%
- inhibition at 10 µM [35]: 14.5%
- inhibition at 10 µM [36]: 7%
- inhibition at 10 µM [37]: 1.8%
- inhibition at 10 µM [38]: -1.2%
- inhibition at 10 µM [39]: 22.7%
